Test results reported in article PMC3291479 (2011).
Where two headings read alike, the source gives them in different places.

What was measured:
Format in all cases: biochemical
[1] = biological target: T1, NRH:quinone oxidoreductase 2 (NQO2) (Homo sapiens, UniProt P16083); assay: rhNQO2 resazurin reduction, 96-well fluorescence assay
T1 sequence (P16083 1-231): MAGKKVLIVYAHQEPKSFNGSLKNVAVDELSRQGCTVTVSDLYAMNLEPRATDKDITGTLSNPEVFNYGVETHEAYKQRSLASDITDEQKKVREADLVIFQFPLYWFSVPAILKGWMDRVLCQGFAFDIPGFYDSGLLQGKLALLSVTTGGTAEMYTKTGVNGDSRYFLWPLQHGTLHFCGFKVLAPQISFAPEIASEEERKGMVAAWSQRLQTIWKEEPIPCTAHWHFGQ

[2] = biological target: T1, NRH:quinone oxidoreductase 2 (NQO2); assay: NRH-dependent inactivation of rhNQO2; conditions: read-out: rhNQO2 inhibition at 1μM ^a
[3] = biological target: T1, NRH:quinone oxidoreductase 2 (NQO2); assay: NRH-dependent inactivation of rhNQO2; conditions: read-out: rhNQO2 inhibition at 1μM ^a; remark: listed apart in the source
[4] = biological target: T1, NRH:quinone oxidoreductase 2 (NQO2); assay: NRH-dependent inactivation of rhNQO2; conditions: read-out: rhNQO2 inhibition at 1μM ^a; remark: listed apart in the source

Row | Compound | rhNQO2 resazurin reduction, 96-well fluorescence assay [1] | further results
1 | CCN(CC)CCCC(C)Nc1ccnc2cc(Cl)ccc12 (stereo not shown) [chloroquine] | quercetin, imatinib, resveratrol, chloroquine, and melatonin for their ability to inhibit rhNQO2 activity in a cell-free system | 
2 | Cc1c(COc2ccc([N+](=O)[O-])cc2)c2c(n1C)C(=O)C=C(NCCCCN)C2=O [compound 1, 5-(4-aminobutyl)amino-1,2-dimethyl-3-[(4-nitrophenoxy)methyl]indole-4,7-dione] |  | inhibition at 1 µM [2]: 96%
3 | Cc1c(COc2c(F)cc(F)cc2F)c2c(n1C)C(=O)C=C(NCCCCN)C2=O [compound 2, 5-(4-aminobutyl)amino-1,2-dimethyl-3-[(2,4,6-trifluorophenoxy)methyl]indole-4,7-dione] |  | inhibition at 1 µM [3]: 96%
4 | Cc1c(COc2c(F)cc(F)cc2F)c2c(n1C)C(=O)C(NCCCCN)=CC2=O [compound 3, 6-(4-aminobutyl)amino-1,2-dimethyl-3-[(2,4,6-trifluorophenoxy)methyl]indole-4,7-dione] |  | inhibition at 1 µM [4]: 33%
5 | Cc1ccc(NC(=O)c2ccc(CN3CCN(C)CC3)cc2)cc1Nc1nccc(-c2cccnc2)n1 [imatinib] | quercetin, imatinib, resveratrol, chloroquine, and melatonin for their ability to inhibit rhNQO2 activity in a cell-free system | 
6 | O=c1c(O)c(-c2ccc(O)c(O)c2)oc2cc(O)cc(O)c12 [quercetin] | quercetin, imatinib, resveratrol, chloroquine, and melatonin for their ability to inhibit rhNQO2 activity in a cell-free system | 
7 | Oc1ccc(/C=C/c2cc(O)cc(O)c2)cc1 [resveratrol] | quercetin, imatinib, resveratrol, chloroquine, and melatonin for their ability to inhibit rhNQO2 activity in a cell-free system | 
